Test results published in patent publication US8633308B2, “Compounds for preventing or treating viral infections and methods of use thereof” (The Governors of The University of Alberta, priority 2007, dated 2014).
Several values for one entry are separate records, joined by “and”; a condition that tells them apart may be missing. Equal entries are not always repeated. Entries after “also recorded” stand apart in the source; their conditions may differ. Where two headings read alike, the source gives them in different places.

How the values were obtained:
HSV-1 KOS [1] = assay: HSV-1 infectivity plaque assay, virions pretreated with compound, Vero cells; assay type: cell-based, herpes simplex virus type 1; settings: for potency compared with dUY11: infections of cultured cells
Vero cells [2] = assay: Cytotoxic/cytostatic effects, trypan blue exclusion cell counts; settings: for cytotoxicity (in words): cultured cells
HSV-1 KOS [3] = assay: Binding of radiolabeled HSV-1 virions to Vero cells; assay type: cell-based, herpes simplex virus type 1; settings: 7 μM; adsorption at 4° C. for 1 hour
Description: Infectivity was inhibited by pre-treating HSV-1 virions with the amphipathic nucleoside derivatives before infection. These nucleosides may thus inhibit HSV-1 infectivity by, for example, preventing virion binding to cells. Alternatively, they may disrupt extracellular virions (i.e. have virucidal activities). […] The binding of HSV-1 virions pre-treated with dUY11 was assessed. FIG. 11 is a bar graph and photographic images showing HSV-1 binding (A) and infectivity (B). In parallel studies, [35]S-Methionine radiolabeled (approximately 4×10^5 cpm in 2.5×10^5 PFU) (A) or non-radiolabeled HSV-1 KOS (B) were pretreated with no drug (white bar), 7 μM dUY11 (striped bar), or 100 μg/ml heparin (black bar) for 5 minutes at 37° C. The samples were then cooled on ice. Inocula were diluted (1:20, 1:100) in ice-cold serum-free media supplemented with no drug, 7 μM dUY11, or 100 μg/ml heparin. Vero cells were infected with the so-pretreated virions at 4° C. for 1 hour, washed three times with ice-cold serum-free medium and lysed. Bound virions were quantified by liquid scintillation. Error bars represent ranges of three experiments (A).

VSV = assay type: cell-based, vesicular stomatitis virus; settings: virions pretreated 5 minutes at 37° C.; Vero cells; read-out: IC50, infectivity of VSV
[4] = Dispersion and stability in culture medium; assay type: physicochemical
HSV-1 [5] = assay: HSV-1 replication, cells treated only after infection with untreated virions; settings: post-adsorption treatment of cells
Description: HSV-1 inocula were incubated at 37° C. for 0 or 5 minutes with 2 μM of dUY11 (left half of each panel) or with DMSO vehicle (right half of each panel). Vero cells were infected with 0.5; 5; 50; 500; 5,000; or 50,000 PFU of treated HSV-1, as indicated in the cartoon (top panel), washed and overlaid with Dulbecco's Modified Eagle Media (DMEM) supplemented with 5% fetal bovine serum (FBS) and 2% methylcellulose (MC).
Tests were performed to determine whether dUY11 preferentially targets the viral envelope or the cell membrane. […] HSV-1 KOS (200 PFU) were incubated with 0, 0.002, 0.007, 0.02, 0.07, 0.2, 0.7, 2, 7, 20 or 70 μM dUY11 for 5 minutes at 37° C. Vero cells were then infected with so-pretreated virions for 1 hour, washed and overlaid with medium supplemented with 5% FBS and 2% MC (▪). Alternatively, untreated inocula were used to infect untreated Vero cells (▴) or Vero cells pretreated at 37° C. for up to 60 minutes with 0, 2, 7, 20 or 70 μM dUY11 (●). Non-pretreated infected cells were then overlayed with medium supplemented with 5% FBS and 2% MC supplemented with 0, 2, 7, 20 or 70 μM dUY11. […] Error bars represent ranges of three or more experiments.

HSV-1 KOS [6] = assay: HSV-1 entry, RFP reporter under HSV-1 ICP0 IE promoter in Vero cells; assay type: cell-based, herpes simplex virus type 1; settings: virions pretreated with 2 μM; 24 hpi
HSV-1 KOS [7] = assay: HSV-1 infectivity, Vero cells pretreated with compound, untreated virions; assay type: cell-based, herpes simplex virus type 1; settings: IC50 5.4 μM versus 20 nM
HSV-1 KOS [8] = assay: HSV-1 infectivity plaque assay, pretreated virions, Human Foreskin Fibroblasts; assay type: cell-based, herpes simplex virus type 1; settings: HFF
Text: FIG. 8 is a line graph showing HSV-1 infectivity plotted against concentration of dUY11. […] As expected, dUY11 treated virions were equally non-infectious for Vero cells or Human Foreskin Fibroblasts.

HSV-1 KOS [9] = assay: Infectivity of progeny virions produced by treated infected Vero cells, plaque assay; assay type: cell-based, herpes simplex virus type 1
Description: Virions produced by cells infected and treated with said compounds after infection should therefore not be as infectious as virions produced by untreated cells. FIG. 16A is a line graph showing the reduction in infectivity of virions produced by cells treated with amphipathic nucleoside derivatives for 24 hours and plotted against drug concentration. Vero cells were infected with HSV-1 KOS at a multiplicity of infection (MOI) of 3 PFU/cell. […] Cells were harvested at 24 hpi and viral infectivity was evaluated by standard plaque assays. Error bars represent ranges of 3 or more experiments. The virions produced in the presence of dUY11 were 8 orders of magnitude less infectious than those produced by untreated cells (FIG. 16A). The experiments were then repeated, but limiting the exposure of the infected cells to dUY11 to only 1 hour, immediately after removing the viral inoculum (FIG. 16B). […] Infected cells were then incubated without drug for 22 h, then the infectivity of the progeny virions was assessed. […] Therefore, dUY11 interacts with pre-existing cellular factors that are incorporated into virions, such as membrane lipids.

Vero cells [10] = system: Vero cells
HSV-2 strain 186 = assay type: cell-based, HSV type 2; settings: virions pretreated 5 minutes at 37° C.; Vero cells; read-out: IC50, infectivity of HSV-2 strain 186
HSV-1 [11] = assay: Release of HSV-1 DNA/virions by infected Vero cells, Southern blot of extracellular viral DNA; assay type: cell-based, herpes simplex virus type 1; settings: 2 μM, 1, 5, 18, 24 hpi
HSV-1 [12] = assay: HSV-1 DNA replication, Southern blot of intracellular viral DNA in infected Vero cells; assay type: cell-based, herpes simplex virus type 1; settings: 2 μM, 5 PFU/cell, 1, 5, 18, 24 hpi
Description: To identify whether the amphipathic nucleoside derivatives inhibited either viral DNA replication or viral gene expression, the ability of the amphipathic nucleoside derivatives to inhibit the accumulation of HSV-1 DNA was tested.

HSV-2 = assay: Mouse vaginal infection with HSV-2 virions exposed to compound; assay type: in vivo, mice
Text: In order to determine whether an amphipathic nucleoside derivative described herein inhibited viral transmission, a model vaginal infection with a sexually transmitted virus, HSV-2, was used. […] All five mice infected with 3×10^3 infectious virions, and three of the mice infected with 10^3, had to be euthanized between days 7 and 9 due to advanced illness (FIGS. 18E and 19A-B).

SIN virus = assay type: cell-based, Sindbis virus; settings: virions pretreated 5 minutes at 37° C.; Vero cells; read-out: IC50, infectivity of SIN
HSV-2 strain 333 = assay type: cell-based, HSV type 2; settings: virions pretreated 5 minutes at 37° C.; Vero cells; read-out: IC50, infectivity of HSV-2 strain 333
HSV-1 [13] = assay: High-affinity binding of HSV-1 virions, heparin competition; assay type: cell-based, herpes simplex virus type 1; settings: 7 μM
Description: dUY11 was next evaluated for its ability to affect high-affinity binding. FIG. 12 is a line graph showing competition of HSV-1 binding to cells by increasing concentration of heparin. […] Inocula were cooled on ice, and then diluted (1:10) in ice-cold serum-free media with or without 7 μM dUY11. Following 15 minute adsorption onto Vero cells, unbound virions were washed away. […] Virions stripped away by these washes were then quantified by liquid scintillation. Error bars represent ranges of two experiments. […] Therefore, the amphipathic nucleoside derivatives inhibit a step between high-affinity binding and viral DNA replication.

[14] = Human alphaherpesvirus 1, Vero, Table 1, read-out: IC50 (μM) on infectivity of HSV-1 on Vero cells
[15] = 10^3 or 3×10^3 HSV-2 virions exposed to 70 μM, vaginal infection

## O=c1[nH]c(=O)n([C@@H]2O[C@H](CO)C(O)C2O)cc1C#Cc1ccc2c3cccc4cccc(c5cccc1c52)c43 (some centres unmarked) [aUY11, 5-(Perylen-3-ylethynyl)-arabino-uridine]
HSV-1 KOS [1]; [14]
  IC50: 0.075 µM
HSV-1 KOS [1]
  potency compared with dUY11: approximately as potent as dUY11
Vero cells [2]
  cytotoxicity (in words): neither were cytotoxic

## O=c1[nH]c(=O)n([C@H]2C[C@H](O)[C@@H](CO)O2)cc1C#Cc1ccc2c3cccc4cccc(c5cccc1c52)c43 [dUY11]
HSV-1 KOS [1]; 20 nM (IC50) at 37° C., Vero cells
  time to inhibit HSV-1 infectivity by 50%: 220 s
HSV-1 KOS [1]; 700 nM, Vero cells
  infectivity with virions pretreated with 700 nM: fully inhibited
HSV-1 KOS [1]; 2 μM, inocula incubated 0 or 5 min at 37° C.
  effect on viral infectivity, plaque assay: inhibits viral infectivity
HSV-1 KOS [1]; 7 μM
  infectivity in parallel to binding study: did abrogate infectivity
HSV-1 KOS [1]; Table 1, read-out: IC50 (μM) on infectivity of HSV-1 on Vero cells
  IC50: 0.05 µM
HSV-1 KOS [1]; up to 70 μM
  maximum inhibition, virion pretreatment: 100%
HSV-1 KOS [1]; virions pretreated 5 minutes at 37° C., Vero cells, calculated graphically, read-out: IC50, HSV-1 infectivity
  IC50: 0.02 µM and 0.025 µM and 0.024 µM
HSV-1 KOS [3]
  inhibition of HSV-1 virion binding to cells: did not inhibit virion binding; also recorded: does not inhibit HSV-1 binding
VSV
  IC50: 0.006 µM
[4]; 150 μM
  stability in medium: not stable in medium for long periods
[4]; culture media
  concentration at which homogeneously dispersed in media: up to 70,000 nM
HSV-1 [5]
  effect on viral replication when added after infection: no effect on viral replication; also recorded: no effect on HSV-1 replication
HSV-1 KOS [6]
  HSV-1 entry (RFP expression in reporter cells): no detectable fluorescence; also recorded: inhibits HSV-1 entry
HSV-1 KOS [7]
  fold higher concentration for cell pretreatment versus virion pretreatment: 270 fold
HSV-1 KOS [8]; 700 nM
  infectivity with virions pretreated with 700 nM: fully inhibited
HSV-1 KOS [8]; virions pretreated 5 minutes at 37° C.
  IC50: 0.02 µM
HSV-1 KOS [9]; cells exposed for only 1 hour
  IC50: 3.9 µM
HSV-1 KOS [9]; cells exposed for only 1 hour after removing inoculum
  reduction in infectivity of virions budded from treated cells: 6 orders of magnitude
HSV-1 KOS [9]; cells treated for 24 or only 1 hours
  effect on infectivity of progeny virions (in words): inhibits the infectivity of progeny virions
HSV-1 KOS [9]; cells treated for 24 hours after infection, up to 2 μM
  reduction in infectivity of virions produced by treated cells: 8 orders of magnitude
Vero cells [10]
  cytotoxicity (in words): non-cytotoxic
HSV-2 strain 186
  IC50: 0.049 µM
Vero cells [2]; 50% cytotoxicity not reached
  safety index (SI): > 7,500
HSV-1 [11]
  inhibition of release of HSV-1 DNA (extracellular viral DNA): does not inhibit the release of progeny HSV-1 DNA
HSV-1 [12]
  inhibition of HSV-1 DNA replication (intracellular viral DNA): does not inhibit HSV-1 DNA replication; also recorded: does not inhibit viral DNA replication at any time tested
HSV-2; [15]
  mice shedding detectable infectious virus: None of the ten mice
  mice showing clinical signs of infection: None of the ten mice
HSV-2; virions exposed to 70 μM
  protection of mice from vaginal (genital) infection: protects mice from genital infection; also recorded: protects from vaginal infection with HSV-2; also recorded: non-infectious to mice
SIN virus
  IC50: 0.058 µM
HSV-2 strain 333
  IC50: 0.065 µM
HSV-1 [13]
  virucidal activity: not virucidal
HSV-1 [13]; heparin washes 0 to 1,000 μg/ml
  block of low- or high-affinity binding: does not block either low- or high-affinity binding; also recorded: does not block high-affinity binding

## O=c1[nH]c(=O)n([C@H]2CC[C@@H](CO)O2)cc1C#Cc1ccc2c3cccc4cccc(c5cccc1c52)c43 [ddUY11, 5-(Perylen-3-ylethynyl)-2′,3′-dideoxyuridine]
HSV-1 KOS [1]; [14]
  IC50: 0.045 µM
HSV-1 KOS [1]
  potency compared with dUY11: approximately as potent as dUY11
Vero cells [2]
  cytotoxicity (in words): neither were cytotoxic
